# Results: PubChem BioAssay (NCI)
#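 Values below derive from 48-hour exposures of cells grown in 96-well plates, with endpoints linearly interpolated between the two concentrations bracketing the appropriate inhibition level. TGI is the concentration that stops growth completely.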
# Legend:
# Assay in all cases: NCI anticancer screen, dose series, 48 h
# [1] = test system: OVCAR-8 ovarian
# [2] = test system: COLO 205 colon
# [3] = test system: SF-539 CNS
# [4] = test system: HT29 colon
# [5] = test system: SK-MEL-28 melanoma
# [6] = test system: HCT-15 colon
# [7] = test system: OVCAR-5 ovarian
# [8] = test system: CCRF-CEM leukemia
# [9] = test system: UO-31 renal
# [10] = test system: MCF7 breast
# [11] = test system: HOP-62 NSCLC
# [12] = test system: MDA-MB-435
# [13] = test system: RXF 393 renal
# [14] = test system: CAKI-1 renal
# [15] = test system: UACC-62 melanoma
# [16] = test system: HCC-2998 colon
# [17] = test system: OVCAR-3 ovarian
# [18] = test system: NCI-H226 lung
# [19] = test system: MALME-3M melanoma
# [20] = test system: U251 CNS
# [21] = test system: T-47D breast
# [22] = test system: K-562 leukemia
# [23] = test system: RPMI-8226 leukemia
# [24] = test system: DU-145 prostate
# [25] = test system: SW-620 colon
# [26] = test system: NCI/ADR-RES ovarian
# [27] = test system: SF-268 CNS
# [28] = test system: MDA-MB-231 breast
# [29] = test system: NCI-H522 lung
# [30] = test system: M14 melanoma
# [31] = test system: SN12C renal
# [32] = test system: SNB-19 CNS
# [33] = test system: SK-OV-3 ovarian
# [34] = test system: HS 578T breast
# [35] = test system: MDA-N
# [36] = test system: SF-295 CNS
# [37] = test system: 786-0 renal
# [38] = test system: ACHN renal
# [39] = test system: PC-3 prostate
# [40] = test system: UACC-257 melanoma
# [41] = test system: A549 NSCLC
# [42] = test system: LOX IMVI melanoma
# [43] = test system: SNB-75 CNS
# [44] = test system: EKVX NSCLC
# [45] = test system: IGROV1 ovarian
# [46] = test system: NCI-H460 lung
# [47] = test system: HCT-116 colon
# [48] = test system: HL-60(TB) leukemia
# [49] = test system: NCI-H23 lung
# [50] = test system: HOP-92 NSCLC
# [51] = test system: SK-MEL-5 melanoma
# [52] = test system: SR leukemia
# [53] = test system: OVCAR-4 ovarian
# [54] = test system: KM12 colon
# [55] = test system: MOLT-4 leukemia
# [56] = test system: TK-10 renal
# [57] = test system: A498 renal
# [58] = test system: SK-MEL-2 melanoma
# [59] = test system: BT-549 breast
compound,measurement,setting,value
COc1c(C(=O)NCCN(CCNC(=O)c2cccc(-c3cccc(C(=O)N(C)C)c3OC)c2OC)CCNC(=O)c2cccc(-c3cccc(C(=O)N(C)C)c3OC)c2OC)cccc1-c1cccc(C(=O)N(C)C)c1OC,TGI,[1],> 100 µM
same,TGI,[2],48.6 µM
same,TGI,[3],36.2 µM
same,TGI,[4],> 100 µM
same,TGI,[5],41.5 µM
same,TGI,[6],> 100 µM
same,TGI,[7],> 100 µM
same,TGI,[8],72.7 µM
same,TGI,[9],> 100 µM
same,TGI,[10],78 µM
same,TGI,[11],> 100 µM
same,TGI,[12],39.8 µM
same,TGI,[13],63 µM
same,TGI,[14],> 100 µM
same,TGI,[15],67.2 µM
same,TGI,[16],33.1 µM
same,TGI,[17],32.5 µM
same,TGI,[18],36.6 µM
same,TGI,[19],39.6 µM
same,TGI,[20],> 100 µM
same,TGI,[21],> 100 µM
same,TGI,[22],65 µM
same,TGI,[23],63.7 µM
same,TGI,[24],> 100 µM
same,TGI,[25],> 100 µM
same,TGI,[26],> 100 µM
same,TGI,[27],47.2 µM
same,TGI,[28],81.2 µM
same,TGI,[29],43.5 µM
same,TGI,[30],> 100 µM
same,TGI,[31],> 100 µM
same,TGI,[32],> 100 µM
same,TGI,[33],> 100 µM
same,TGI,[34],87.3 µM
same,TGI,[35],37.9 µM
same,TGI,[36],> 100 µM
same,TGI,[37],> 100 µM
same,TGI,[38],> 100 µM
same,TGI,[39],> 100 µM
same,TGI,[40],75.5 µM
same,TGI,[41],> 100 µM
same,TGI,[42],33.7 µM
same,TGI,[43],83.8 µM
same,TGI,[44],> 100 µM
same,TGI,[45],> 100 µM
same,TGI,[46],> 100 µM
same,TGI,[47],41.4 µM
same,TGI,[48],69.5 µM
same,TGI,[49],> 100 µM
same,TGI,[50],46.2 µM
same,TGI,[51],68.7 µM
same,TGI,[52],71.5 µM
same,TGI,[53],84 µM
same,TGI,[54],31.6 µM
same,TGI,[55],72.4 µM
COc1ccc2c(c1)/C(=C\c1c(Cl)[nH]c3ccccc13)C(=O)N2,TGI,[1],23.8 µM
same,TGI,[2],6.6 µM
same,TGI,[3],12.5 µM
same,TGI,[4],5.2 µM
same,TGI,[56],23 µM
same,TGI,[5],8.05 µM
same,TGI,[6],37.2 µM
same,TGI,[7],26.8 µM
same,TGI,[8],13.4 µM
same,TGI,[9],20.2 µM
same,TGI,[10],13.7 µM
same,TGI,[11],17.9 µM
same,TGI,[12],3.82 µM
same,TGI,[13],13.4 µM
same,TGI,[14],27.1 µM
same,TGI,[57],23.7 µM
same,TGI,[15],20 µM
same,TGI,[16],13.3 µM
same,TGI,[17],23 µM
same,TGI,[58],16.1 µM
same,TGI,[18],70.8 µM
same,TGI,[59],14.8 µM
same,TGI,[19],19.2 µM
same,TGI,[20],13.2 µM
same,TGI,[21],> 100 µM
same,TGI,[22],12.2 µM
same,TGI,[23],16.3 µM
same,TGI,[24],56.7 µM
same,TGI,[25],13.4 µM
same,TGI,[26],8.03 µM
same,TGI,[27],16 µM
same,TGI,[28],26.5 µM
same,TGI,[29],11.5 µM
same,TGI,[30],16.2 µM
same,TGI,[31],24.7 µM
same,TGI,[32],19.3 µM
same,TGI,[33],9.87 µM
same,TGI,[34],9.88 µM
same,TGI,[35],3.83 µM
same,TGI,[36],6.26 µM
same,TGI,[37],17 µM
same,TGI,[38],20.8 µM
same,TGI,[39],18 µM
same,TGI,[40],20.4 µM
same,TGI,[41],19 µM
same,TGI,[42],17.5 µM
same,TGI,[44],18.5 µM
same,TGI,[45],9.78 µM
same,TGI,[46],14.5 µM
same,TGI,[47],10.8 µM
same,TGI,[48],10.8 µM
same,TGI,[49],25 µM
same,TGI,[50],12.5 µM
same,TGI,[51],14.8 µM
same,TGI,[52],8.25 µM
same,TGI,[54],15.1 µM
same,TGI,[55],41 µM
